Data set [1] has as its system humanized PXR-CAR-CYP3A4/3A7 mice, liver. The data set is described as follows: Liver cholesterol, C4 and lathosterol analysis (HFD study). The format is in vivo, mouse. Also noted: liver total cholesterol (TotCh), individual animals / liver free cholesterol (Free CH), individual animals / liver cholesteryl esters (CE), individual animals / liver C4, individual animals / liver lathosterol, individual animals: unit not given here. The protocol: Cholesterol (Ch, total and free Ch), C4, and lathosterol determination were performed in liver tissue (25–80 mg fresh weight) using GC-MS according to Cohen et al.[67] (detailed protocol in Supplementary, Chapter 14). Internal standard (d7-cholesterol, Sigma Aldrich/Merck) was used. Solid phase extraction[68] and analysis were performed using LC-MS/MS as described previously. Protein quantification was done using DC Protein Assay (Bio-Rad) according to manufacturer instructions (micro assay format). All samples were analyzed for protein content in triplicates and analyzed.
Liver tissue (25-80 mg fresh weight) was diluted 10x with PBS (by weight), cut into small pieces using scissors, and treated with multiple (10-20) short pulses of ultrasound until a smooth homogenate was obtained. This 10% liver sonicate was used in subsequent analyses.
Lathosterol was measured using the same procedure as for free cholesterol with slight modifications: the volume of liver homogenate as well as the injection volume were increased (100 µL and 2 µL, respectively) while the amount of internal standard was reduced to approximately 100 ng. Also, the mixture was sonicated for 10 minutes after adding ethanol.
Liver sonicate (10%) was further diluted 30x (by weight) and 5 µL was analyzed using DC Protein Assay (Bio-Rad) according to manufacturer instructions (microassay format). Bovine serum albumin was used as standard. All samples were analyzed in triplicates.

Another data set concerns the target T1, PXR/NCOR2 (Homo sapiens, UniProt O75469).
T1 construct: PXR-LBD (residues 108–434); expressed in transfected cells; host or cells: HepG2
The data set is described as follows: Mammalian two-hybrid PXR/corepressor NCOR2 release, HepG2. The class given is cell-based. Also noted: key: firefly/Metridia luciferase activity ratio (normalized). The method, then:
The GAL4-dependent pGL4-G5, harboring a pentamer of GAL4 binding sites in front of the E1b promoter was described before.
Transient batch transfection of HepG2 cells was done as described above. […] All transfections included 0.01 µg pMetLuc2control per well for normalization of firefly luciferase reporter activities. After overnight incubation with the transfection mixtures, cells were treated with chemicals in a volume of 100 µl of cell culture medium. […] Firefly luciferase activity was measured in 10 µl of cell lysates, and Metridia luciferase activity was analyzed in 10 µl of medium supernatant, both as described before. Results were normalized by dividing firefly luciferase activity by Metridia luciferase activity measured from the same well. Measurements of samples were repeated several times (n ≥ 3).

In a further data set the test system is HepaRG KO CAR cells. Description: RT-qPCR mRNA expression in HepaRG KO CAR cells. The class given is cell-based, human. In general terms: In qPCR the cycle at which signal appears reflects the starting amount.
The mark [2] stands for this setting: male mice, MI-883 5 mg/kg 3× per week p.o., unit not given, 5 mg/kg.

Where “and” joins values, the source holds several entries; their conditions need not be identical. Identical values can stand only once.

T1 sequence (O75469 108-434): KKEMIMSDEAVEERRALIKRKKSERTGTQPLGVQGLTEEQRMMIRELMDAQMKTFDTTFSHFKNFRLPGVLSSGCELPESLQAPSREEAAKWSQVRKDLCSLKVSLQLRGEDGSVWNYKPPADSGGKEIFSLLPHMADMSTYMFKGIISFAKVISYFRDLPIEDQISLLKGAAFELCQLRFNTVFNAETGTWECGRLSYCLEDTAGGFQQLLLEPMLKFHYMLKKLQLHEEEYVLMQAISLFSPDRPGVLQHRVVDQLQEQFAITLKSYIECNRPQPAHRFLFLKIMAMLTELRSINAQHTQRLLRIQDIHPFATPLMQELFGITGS
T1 sequence (P19793 whole entry partner, the tested form may be a part): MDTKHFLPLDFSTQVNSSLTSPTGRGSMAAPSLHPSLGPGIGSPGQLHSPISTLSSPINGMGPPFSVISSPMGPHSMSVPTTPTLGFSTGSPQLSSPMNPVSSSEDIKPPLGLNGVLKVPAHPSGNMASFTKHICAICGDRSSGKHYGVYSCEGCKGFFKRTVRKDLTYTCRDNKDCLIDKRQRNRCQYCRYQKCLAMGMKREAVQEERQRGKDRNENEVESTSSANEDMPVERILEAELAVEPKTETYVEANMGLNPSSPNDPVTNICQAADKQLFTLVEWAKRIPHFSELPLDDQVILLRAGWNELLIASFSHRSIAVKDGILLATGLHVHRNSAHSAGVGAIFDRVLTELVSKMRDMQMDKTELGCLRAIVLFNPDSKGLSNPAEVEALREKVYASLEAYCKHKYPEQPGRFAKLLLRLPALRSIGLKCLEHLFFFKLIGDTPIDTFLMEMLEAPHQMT
From the text for HepaRG KO CAR cells: HepaRG cells from Biopredic (Rennes, France) were cultivated and differentiated on the 12-well plates. […] Several batches of HepaRG KO CAR (CAR Knockout HepaRG™ Cells, MTOX1012-1VL, RRID:CVCL_B6AA) and PXR Knockout HepaRG™ Cells, MTOX1011-1VL, RRID:CVCL_B6AS) cells have been obtained from Sigma-Aldrich/Merck (Darmstadt, Germany) and cultivated according to the provider’s protocols. […] Experiments with HepaRG KO PXR and HepaRG KO CAR cells have been performed in duplicates at least in two independent experiments.
RT-qPCR was used to examine gene expression in 2D and 3D PHH, HepaRG cells, or in mouse liver or intestine (ileum) samples as we have described before[60]–[62].
All qRT-qPCR experiments including Trizol reagent (Life Technologies) total RNA isolation, reverse-transcription using a random hexaprimer, and the MMLV Reverse Transcriptase Kit (ThermoFisher Scientific) we have described before^19. qPCR was performed using TaqMan Fast Advanced Master Mix with TaqMan probes (ThermoFisher Scientific). […] The delta-delta method was used for gene expression quantification normalized to at least two reference genes. Three technical replicates were used for each reaction considering the MIQE guidelines. Data are presented as fold induction to vehicle-treated cells/animals.

For the compound `NC(=O)c1cc(Cn2cc(-c3c(-c4ccc(Cl)cc4)nc4cc(F)ccn34)nn2)ccc1Cl` [MI-883, 2-chloro-5-((4-(2-(4-chlorophenyl)-7-fluoroimidazo[1,2-a]pyridin-3-yl)-1H-1,2,3-triazol-1-yl)methyl)benzamide], in data set [1], the “free cholesterol in the liver (per liver protein or LW)” value is listed as “significantly decreased”; the “liver C4 and C4/total cholesterol” value is reported as “did not increase”; the “liver lathosterol, total cholesterol, cholesteryl esters (CE)” value is on record as “did not show significant changes”. Further, in data set [1] (setting [2]), the “liver C4, individual animals” value is 742.5 and 1060.6 and 588.1 and 517.8 and 1677.1 and 810.7 and 1283.7 and 1057.8 and 1099.9; the “liver cholesteryl esters (CE), individual animals” value is 23 and 16.4 and 24.1 and 22.4 and 62.3 and 32.9 and 18.7 and 38.2 and 47.6; the “liver free cholesterol (Free CH), individual animals” value was 40.3 and 36.2 and 35.7 and 37.4 and 37.7 and 32.3 and 38.3 and 39.6 and 40.5; the “liver lathosterol, individual animals” value is 1.57 and 2.018 and 2.101 and 1.895 and 2.439. For the same compound, in data set [1] (setting [2]), the “liver total cholesterol (TotCh), individual animals” value is 63.3 and 52.6 and 59.8 and 100 and 65.2 and 57 and 77.8 and 88.1. The “PXR/NCOR2 (SMRT) two-hybrid activity, replicates” value at PXR/NCOR2 (MI-883 30 μM) was 0.575 and 0.629 and 0.672 and 0.562 and 0.437. In addition, the “PXR/NCOR2 (SMRT) two-hybrid activity, replicates” value at PXR/NCOR2 (single agent: RIF (10 µM), MI-883 10 μM) was 0.59 and 0.547 and 0.723 and 0.544 and 0.703. The “CYP7A1 mRNA in HepaRG KO CAR cells” value in the data set on HepaRG KO CAR cells is on record as “induced”. Besides, the “CYP2B6 mRNA, RT-qPCR, HepaRG KO CAR (Fig. 1f), replicates” value in the data set with HepaRG KO CAR cells (Phenobarbital 500 μM, CITCO 1 μM, MI 883 1 μM, ctrl = 1) was 0.55 and 0.6 and 0.76.

The record behind these values is publication PMC11802874, “The hypolipidemic effect of MI-883, the combined CAR agonist/ PXR antagonist, in diet-induced hypercholesterolemia model” (Nature Communications, 2025).
